Test results reported in patent US20220081421A1, “ANTIBACTERIAL COMPOUNDS” (Forge Therapeutics, Inc., priority 2018, published 2022).
Converted amounts (≈) assume the structure as drawn.

Legend:
[1] = system: K. pneumoniae; test: MIC by broth microdilution (CLSI), K. pneumoniae; assay type: cell-based; details: broth microdilution, cation adjusted Mueller-Hinton Broth, 35° C., 18-24 h; for MIC: Klebsiella pneumoniae, read-out: K. pneumoniae MIC
Protocol: (§1) Minimal inhibitory concentrations (MIC) were determined by the broth microdilution method in accordance with the Clinical and Laboratory Standards Institute (CLSI) guidelines. In brief, organism suspensions were adjusted to a 0.5 McFarland standard to yield a final inoculum between 3×10^5 and 7×10^5 colony-forming units (CFU)/mL. Drug dilutions and inocula were made in sterile, cation adjusted Mueller-Hinton Broth (Beckton Dickinson). An inoculum volume of 100 μL was added to wells containing 100 μL of broth with 2-fold serial dilutions of drug. All inoculated microdilution trays were incubated in ambient air at 35° C. for 18-24 h. Following incubation, the lowest concentration of the drug that prevented visible growth (OD600 nm<0.05) was recorded as the MIC. Performance of the assay was monitored by the use of laboratory quality-control strains and levofloxacin, a compound with a defined MIC spectrum, in accordance with CLSI guidelines.

[2] = system: E. coli; test: MIC by broth microdilution (CLSI), E. coli; assay type: cell-based; details: broth microdilution, cation adjusted Mueller-Hinton Broth, 35° C., 18-24 h; for MIC: Escherichia coli, read-out: E. coli MIC
Protocol: as §1

Row | SMILES | K. pneumoniae MIC [1] | E. coli MIC [2] | MIC [1] | MIC [2]
1 | OCC(Cc1nncc(O)c1O)c1ccc(C#Cc2ccc(CN[C@H]3CCOC3)cc2)cc1 (single isomer, unassigned) [Compound 101] | B (B: >1 μg/mL to ≤8.0 μg/mL) | B (B: >1 μg/mL to ≤8.0 μg/mL) |  | 
2 | O=c1[nH]cnc(C(CNCCF)Cc2ccc(C#Cc3ccc(CN4CCOCC4)nc3)cc2)c1O (stereo not shown) [Compound 31, 6-(1-((2-fluoroethyl)amino)-3-(4-((6-(morpholinomethyl)pyridin-3-yl)ethynyl)phenyl)propan-2-yl)-5-hydroxypyrimidin-4(3H)-one] |  |  | > 32 µg/mL | > 32 µg/mL
3 | O=C1N(CCc2nc[nH]c(=O)c2O)Cc2cc(Br)cn21 [Compound 69, 6-bromo-2-(2-(5-hydroxy-6-oxo-1,6-dihydropyrimidin-4-yl)ethyl)-1,2-dihydro-3H-pyrrolo[1,2-c]imidazol-3-one] |  |  | > 32 µg/mL | > 32 µg/mL
4 | O=c1[nH]cnc(C2(Cc3ccc(C#Cc4ccc(CN5CCOCC5)cc4)cc3)CC2)c1O [Compound 135, 5-hydroxy-6-(1-(4-((4-(morpholinomethyl)phenyl)ethynyl)benzyl)cyclopropyl) pyrimidin-4(3H)-one] |  |  | > 32 µg/mL | 8 to 32 µg/mL (≈ 18.1 to 72.5 µM)
5 | C=CCNCC(Cc1ccc(C#CC#Cc2ccc(C(=O)NCCO)cc2)cc1)c1nc[nH]c(=O)c1O (stereo not shown) [Compound 34, 4-((4-(3-(allylamino)-2-(5-hydroxy-6-oxo-1,6-dihydropyrimidin-4-yl)propyl)phenyl)buta-1,3-diyn-1-yl)-N-(2-hydroxyethyl)benzamide] |  |  | 8 to 32 µg/mL (≈ 16.1 to 64.4 µM) | 1 to 8 µg/mL (≈ 2.01 to 16.1 µM)
6 | O=C(NCC(F)F)C(Cc1ccc(C#Cc2ccc(C(F)(F)F)nc2)cc1)c1nc[nH]c(=O)c1O (stereo not shown) [Compound 26, N-(2,2-difluoroethyl)-2-(5-hydroxy-6-oxo-1,6-dihydropyrimidin-4-yl)-3-(4-((6-(trifluoromethyl)pyridin-3-yl)ethynyl)phenyl) propanamide] |  |  | > 32 µg/mL | > 32 µg/mL
7 | O=c1[nH]cnc(CCc2ccc(C#Cc3ccc(CN4CCOCC4)nc3)cc2)c1O [Compound 17, 5-hydroxy-6-(4-((6-(morpholinomethyl)pyridin-3-yl)ethynyl)phenethyl) pyrimidin-4(3H)-one] |  |  | 1 to 8 µg/mL (≈ 2.4 to 19.2 µM) | < 1 µg/mL
8 | O=C(NCC(F)F)C(Cc1ccc(-c2ccc(-n3cccn3)cc2)cc1)c1nc[nH]c(=O)c1O (stereo not shown) [Compound 38, 3-(4′-(1H-pyrazol-1-yl)-[1,1-biphenyl]-4-yl)-N-(2,2-difluoroethyl)-2-(5-hydroxy-6-oxo-1,6-dihydropyrimidin-4-yl)propanamide] |  |  | > 32 µg/mL | > 32 µg/mL
9 | N#CCC(Cc1ccc(C#Cc2ccc(CN[C@H]3CCOC3)cc2)cc1)c1nc[nH]c(=O)c1O (stereo partly drawn) [Compound 107, 3-(5-hydroxy-6-oxo-1,6-dihydropyrimidin-4-yl)-4-(4-((4-((((S)-tetrahydrofuran-3-yl)amino)methyl)phenyl)ethynyl)phenyl)butanenitrile] |  |  | 8 to 32 µg/mL (≈ 17.6 to 70.4 µM) | 1 to 8 µg/mL (≈ 2.2 to 17.6 µM)
10 | O=c1ccoc(CCc2ccc(C#Cc3ccc(CN4CCOCC4)cc3)cc2)c1O [Compound 117, 3-hydroxy-2-(4-((4-(morpholinomethyl)phenyl)ethynyl)phenethyl)-4H-pyran-4-one] |  |  | > 32 µg/mL | 8 to 32 µg/mL (≈ 19.3 to 77 µM)
11 | N#Cc1ccc(-c2ccc(CC(C(=O)NCC(F)F)c3nc[nH]c(=O)c3O)cc2)cc1 (stereo not shown) [Compound 39, 3-(4′-cyano-[1,1′-biphenyl]-4-yl)-N-(2,2-difluoroethyl)-2-(5-hydroxy-6-oxo-1,6-dihydropyrimidin-4-yl)propanamide] |  |  | > 32 µg/mL | > 32 µg/mL
12 | O=c1[nH]cnc(Cn2ccc3cc(C#Cc4ccc(CN5CCOCC5)cc4)cnc32)c1O [Compound 80, 5-hydroxy-6-((5-((4-(morpholinomethyl)phenyl)ethynyl)-1H-pyrrolo[2,3-b]pyridin-1-yl)methyl)pyrimidin-4(3H)-one] |  |  | > 32 µg/mL | 8 to 32 µg/mL (≈ 18.1 to 72.5 µM)
13 | C=CCNCC(Cc1ccc(C#CC#Cc2cnn(C)c2)cc1)c1nc[nH]c(=O)c1O (stereo not shown) [Compound 62, 6-(1-(allylamino)-3-(4-((1-methyl-1H-pyrazol-4-yl)buta-1,3-diyn-1-yl)phenyl)propan-2-yl)-5-hydroxypyrimidin-4(3H)-one] |  |  | 8 to 32 µg/mL (≈ 19.3 to 77.4 µM) | 1 to 8 µg/mL (≈ 2.42 to 19.3 µM)
14 | Cc1ncc(C#Cc2ccc(CC(C(=O)NCC(F)F)c3nc[nH]c(=O)c3O)cc2)cn1 (stereo not shown) [Compound 25, N-(2,2-difluoroethyl)-2-(5-hydroxy-6-oxo-1,6-dihydropyrimidin-4-yl)-3-(4-((2-methylpyrimidin-5-yl)ethynyl)phenyl)propanamide] |  |  | > 32 µg/mL | > 32 µg/mL
15 | O=C(NCCc1nc[nH]c(=O)c1O)n1cc(C#Cc2ccc(CN3CCOCC3)cc2)cc1CO [Compound 79, N-(2-(5-hydroxy-6-oxo-1,6-dihydropyrimidin-4-yl)ethyl)-2-(hydroxymethyl)-4-((4-(morpholinomethyl)phenyl)ethynyl)-1H-pyrrole-1-carboxamide] |  |  | > 32 µg/mL | 8 to 32 µg/mL (≈ 16.8 to 67 µM)
16 | O=C(Cc1nc[nH]c(=O)c1O)N1CCC(C#Cc2ccc(CN3CCOCC3)cc2)CC1 [Compound 77, 5-hydroxy-6-(2-(4-((4-(morpholinomethyl)phenyl)ethynyl)piperidin-1-yl)-2-oxoethyl)pyrimidin-4(3H)-one] |  |  | > 32 µg/mL | 8 to 32 µg/mL (≈ 18.3 to 73.3 µM)
17 | O=c1[nH]cnc(C(CCl)Cc2ccc(C#Cc3ccc(CN4CCOCC4)cc3)cc2)c1O (stereo not shown) [Compound 113, 6-(1-chloro-3-(4-((4-(morpholinomethyl)phenyl)ethynyl)phenyl)propan-2-yl)-5-hydroxypyrimidin-4(3H)-one] |  |  | 8 to 32 µg/mL (≈ 17.2 to 69 µM) | 8 to 32 µg/mL (≈ 17.2 to 69 µM)
18 | O=c1[nH]cnc(C(CNCCF)Cc2ccc(C#CC#CC3CC3)cc2)c1O (stereo not shown) [Compound 68, 6-(1-(4-(cyclopropylbuta-1,3-diyn-1-yl)phenyl)-3-((2-fluoroethyl)amino)propan-2-yl)-5-hydroxypyrimidin-4(3H)-one] |  |  | > 32 µg/mL | > 32 µg/mL
19 | CO/N=C(\C)C(Cc1ccc(C#Cc2ccc(CN3CCOCC3)cc2)cc1)c1ncnc(O)c1O (stereo not shown) [Compound 116, (E)-3-(5,6-dihydroxypyrimidin-4-yl)-4-(4-((4-(morpholinomethyl)phenyl)ethynyl)phenyl)butan-2-one O-methyl oxime] |  |  | > 32 µg/mL | 8 to 32 µg/mL (≈ 16.4 to 65.8 µM)
20 | O=c1[nH]cnc(C(CNCCF)Cc2ccc(C#Cc3ccc(CN4CCOCC4)cn3)cc2)c1O (stereo not shown) [Compound 30, 6-(1-((2-fluoroethyl)amino)-3-(4-((5-(morpholinomethyl)pyridin-2-yl)ethynyl)phenyl)propan-2-yl)-5-hydroxypyrimidin-4(3H)-one] |  |  | > 32 µg/mL | > 32 µg/mL
21 | Nc1ccc(C#Cc2ccc(CC(C(=O)NCC(F)F)c3nc[nH]c(=O)c3O)cc2)cn1 (stereo not shown) [Compound 28, 3-(4-((6-aminopyridin-3-yl)ethynyl)phenyl)-N-(2,2-difluoroethyl)-2-(5-hydroxy-6-oxo-1,6-dihydropyrimidin-4-yl)propanamide] |  |  | > 32 µg/mL | 8 to 32 µg/mL (≈ 18.2 to 72.8 µM)
22 | O=c1ccoc(CC(CO)c2ccc(C#Cc3ccc(CN4CCOCC4)cc3)cc2)c1O (stereo not shown) [Compound 137, 3-hydroxy-2-(3-hydroxy-2-(4-((4-(morpholinomethyl)phenyl)ethynyl)phenyl)propyl)-4H-pyran-4-one] |  |  | 1 to 8 µg/mL (≈ 2.24 to 18 µM) | 1 to 8 µg/mL (≈ 2.24 to 18 µM)
23 | C=CCNCC(Cc1ccc(C#CC#Cc2cn[nH]c2)cc1)c1nc[nH]c(=O)c1O (stereo not shown) [Compound 67, 6-(1-(4-((1H-pyrazol-4-yl)buta-1,3-diyn-1-yl)phenyl)-3-(allylamino)propan-2-yl)-5-hydroxypyrimidin-4(3H)-one] |  |  | > 32 µg/mL | 8 to 32 µg/mL (≈ 20 to 80.1 µM)
